Results taken from patent US10968214B2, “KRas G12C inhibitors” (Eli Lilly and Company, priority 2018, dated 2021).
Where two headings read alike, the source gives them in different places.

How the values were obtained:
[1] = test system: KYSE-410 xenograft; experiment: Anti-tumor growth activity, KYSE-410 esophageal xenograft; assay type: in vivo; settings: 28 Day, negative = regression
[2] = test system: H2030 xenograft; experiment: Anti-tumor growth activity, H2030 lung xenograft; assay type: in vivo; settings: 28 Day, negative = regression
[3] = test system: HCC827; experiment: CellTiterGlo Cell Proliferation Assay, HCC827; assay type: cell-based; settings: Homo sapiens, KRas wild type, lung, 96 hr
Protocol: (§1) A panel of tumor cell lines harboring KRas G12C or other KRas mutations are collected (Table 6). All cell lines are from ATCC or other sources indicated.
(§2) Typically cells are cultured in RPMI1640 or Dulbecco's modified Eagle's medium (DMEM, GIBCO) supplemented with 10% FBS (GIBCO, Invitrogen). For 2D culture cells (4×10^3/well) maintained in growth medium described above, are plated onto 96 well tissue culture plates Corning® Cat. 3603) a day before the treatment. For 3D culture 8000 cells/well are seeded onto 96 well ultra-low attachment tissue culture plates (Corning, #3474). The cells are treated compound for 96 hr, and then are analyzed for viability using the CellTiterGlo® Luminescent Cell Viability Assay® (Promega #G7572 for 2D and Promega #G9683 for 3D cultures) according to manufacturer's instructions and an EnVision™ plate reader. Nonlinear regression and sigmoidal dose-response curves are used to calculate the half maximal inhibitory concentration (IC50) with GraphPad Prism 4® software.

[4] = test system: pMEK in H2122 xenograft tumors; experiment: In vivo target inhibition/PD, H2122 xenograft, pMEK; settings: Mus musculus, NCI-H2122; for inhibition at 10 mg/kg: 10 mg/kg single dose
Protocol: To evaluate in vivo target inhibition and anti-tumor efficacy of a compound, Human lung cancer cells, H358 or H2122 are implanted into nude mice xenograft tumor models. Either H358 or H2122 cells (10×10^6 in a 1:1 Matrigel® mix, 0.2 mL total volume) are implanted by subcutaneous injection in hind leg of nude female mice (Harlan Laboratories). A total of 5 mice each group are used for efficacy study, and a total of 3-4 mice each group are used for target engagement and PD study. Treatment is initiated with oral administration (gavage) of a test compound or vehicle (20% Captisol®, 25 mM phosphate, pH 2.0 in 0.2 mL volume when the tumor size reaches approximately […]. Tumor growth and body weight are monitored over time to evaluate efficacy and signs of toxicity. Bidimensional measurements of tumors are performed twice a week and tumor volumes are calculated based on mid-axis length and mid-axis width. Tumor volume data are transformed to a log scale to equalize variance across time and treatment groups. The log volume data are analyzed with a two-way repeated measures analysis of variance by time and treatment using the mixed procedures in SAS software (version 8.2). The correlation model for the repeated measures is spatial power. Treated groups are compared to the control group at each time point. The mixed procedure is also used separately for each treatment group to calculate adjusted means and standard errors at each time point. Both analyses account for the autocorrelation within each animal. The adjusted means and standard errors are plotted for each treatment group versus time.
For in vivo target inhibition and PD analysis, tumors are ground by mortar and pestle on dry ice and tumor fragments are added to 800 μL of lysis buffer containing 1% Triton X100, 25 mM Tris pH 7.5, 150 mM NaCl, 1 mM EDTA, and 1 mM EGTA with Halt protease and phosphatase inhibitor cocktail (Thermo Scientific, cat. no. 1861281) in lysing matrix D tubes (MP Biomedical®, cat. no. 6913-500) with one additional large bead (MP Biomedical® ¼″ ceramic sphere bead cat. no. 6540-412) per tube. Tumor fragments are homogenized in a Thermo Bio101® fast prep (FP120) at setting 4 for […] while cold for a total of 2 times. Lysates are spun at 14,000 rpm for 10 min at 4° C. to clarify. Protein estimation is done on the lysate supernatant using a BioRad Dc® protein assay and lysates are diluted in complete lysis/binding buffer from the Ras GTPase Chemi ELISA Kit® (Active Motif, cat. no. 52097). The active KRas ELISA was performed as follows: Glutathione-coated ELISA wells were incubated with diluted RAF1-GST in complete lysis/binding buffer for 1 hr at 4° C. with gentle agitation. Wells are washed 3 times with wash buffer and 100 μg of lysates are added to each well and incubated at RT for 1 hr with mild agitation. The wells are washed an additional 3 times, then primary antibody, diluted in antibody binding buffer, is added to each well. The plates are incubated for 1 hr. The wells are washed 3 more times before adding HRP-conjugated secondary antibody, diluted in antibody binding buffer, to each well. The plates are incubated at RT for 1 hr. ELISA wells are washed 4 times, chemiluminescent reagents is added and then luminescence is read. For pERK Meso Scale Discovery ELISA, 25 μg of protein containing 0.1% SDS is used; for pMEK Meso Scale Discovery ELISA, 50 μg of protein without SDS is used. Meso Scale Discovery Whole Cell Lysate Kits for pERK and pMEK are provided by Meso Scale Discovery.
After a single dose, the tumor samples are harvested at different time points. The tumor lysates are prepared as described above. The inhibition of pERK, pMEK, and active KRas is measured as described above.

[5] = target: KRas G12C (Homo sapiens, UniProt P01116, G12C); experiment: KRas G12C Probe Occupancy TR-FRET Assay; assay type: binding; settings: read-out: IC50
Chain of KRas G12C (P01116 1-188 isoform P01116-2 G12C): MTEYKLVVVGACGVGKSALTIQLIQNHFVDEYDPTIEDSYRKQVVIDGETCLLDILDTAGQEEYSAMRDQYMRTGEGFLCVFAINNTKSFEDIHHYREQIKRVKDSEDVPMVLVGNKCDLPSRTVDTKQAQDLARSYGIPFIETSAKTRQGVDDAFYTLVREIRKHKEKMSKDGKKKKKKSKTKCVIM
Protocol: Inhibitors are tested in dose response format from 10 mM stocks in 100% DMSO. The Labycyte Echo® 555 is used to dilute and transfer 100 nL per well containing a 10 point, 2.8-fold serial dilution to an assay plate. […] The signal ratio (em at 665/em at 615) is converted to percent inhibition using the following equation: % Inhibition=100−[(Test Compound Signal−Median Minimum Signal)/(Median Maximum Signal−Median Minimum Signal)×100].

[6] = test system: SW1463; experiment: CellTiterGlo Cell Proliferation Assay, SW1463; assay type: cell-based; settings: Homo sapiens, KRas G12C, colon, 96 hr, read-out: IC50 (μM) in 2 D cell proliferation
Protocol: as §1, §2

[7] = test system: H2122; experiment: CellTiterGlo Cell Proliferation Assay, H2122; assay type: cell-based; settings: Homo sapiens, NCI-H2122, KRas G12C, Lung, 96 hr
Protocol: as §1, §2

[8] = read-out: IC50 (μM) in 2 D cell proliferation
[9] = read-out: IC50 (μM) in 3 D spheroid cell proliferation

C=CC(=O)N1CCN(c2ncnc3c(F)c(-c4ccc(F)c5sc(N)nc45)c(Cl)cc23)CC1 [Example 1, 1-{4-[7-(2-Amino-7-fluoro-1,3-benzothiazol-4-yl)-6-chloro-8-fluoroquinazolin-4-yl]piperazin-1-yl}prop-2-en-1-one]
Tumor Growth Inhibition (%) or Regression (−%) ([1]; 15 mg/kg BID): 21.2%
Tumor Growth Inhibition (%) or Regression (−%) ([1]; 30 mg/kg BID): −9%
Tumor Growth Inhibition (%) or Regression (−%) ([1]; 30 mg/kg QD): 74.5%
Tumor Growth Inhibition (%) or Regression (−%) ([2]; 15 mg/kg BID): 82%
Tumor Growth Inhibition (%) or Regression (−%) ([2]; 30 mg/kg BID): 91.9%
Tumor Growth Inhibition (%) or Regression (−%) ([2]; 30 mg/kg QD): 75.1%
IC50 [3, 8]: 18.9 µM
IC50 [3, 9]: 4.63 µM
inhibition at 10 mg/kg ([4]; H2122 xenograft, 2 hr, read-out: % Inhibition pMEK): 45.9%
inhibition at 10 mg/kg ([4]; H2122 xenograft, 4 hr, read-out: % Inhibition pMEK): 60.4%
inhibition at 10 mg/kg ([4]; H2122 xenograft, 8 hr, read-out: % Inhibition pMEK): 25.7%
inhibition at 10 mg/kg ([4]; H2122 xenograft, 12 hr, read-out: % Inhibition pMEK): -0.4%
inhibition at 10 mg/kg ([4]; H2122 xenograft, 24 hr, read-out: % Inhibition pMEK): -8.4%
inhibition at 10 mg/kg ([4]; H2122 xenograft, from 2-12 hr, read-out: pMEK inhibition): 0 to 60%
inhibition at 30 mg/kg ([4]; H2122 xenograft, 30 mg/kg single dose, 2 hr, read-out: % Inhibition pMEK): 62.4%
inhibition at 30 mg/kg ([4]; H2122 xenograft, 30 mg/kg single dose, 4 hr, read-out: % Inhibition pMEK): 77.5%
inhibition at 30 mg/kg ([4]; H2122 xenograft, 30 mg/kg single dose, 8 hr, read-out: % Inhibition pMEK): 72.2%
inhibition at 30 mg/kg ([4]; H2122 xenograft, 30 mg/kg single dose, 12 hr, read-out: % Inhibition pMEK): 44.7%
inhibition at 30 mg/kg ([4]; H2122 xenograft, 30 mg/kg single dose, 24 hr, read-out: % Inhibition pMEK): -15.5%
inhibition at 100 mg/kg ([4]; H2122 xenograft, 100 mg/kg single dose, 4 hr): 79.7%
inhibition at 30 mg/kg ([4]; read-out: pMEK inhibition): 45 to 78%
IC50 ([5]; 5 min incubation): 25 nM
IC50 ([5]; 60 min incubation): 24 nM
IC50 [6]: 0.013 µM
IC50 [7, 8]: 0.187 µM
IC50 [7, 9]: 0.017 µM
